Source: patent US20080311126A1, “Antisense Oligonucleotides Directed to Ribonucleotide Reducatase R2 and Uses Thereof in Combination Therapies for the Treatment of Cancer” (Genesense Technologies, Inc, priority 2004, published 2008)
Oligonucleotides are written 5' to 3', each unit as a sugar letter and its base; * is a phosphorothioate linkage, no mark a phosphodiester; rarer units and linkages stand in square brackets, end groups in braces. Plain capitals give the bases only. d = 2'-deoxy (DNA)

Experiments:
Type in all cases: cell-based, human
[1] = tested on: Hela S3 cells; experiment: Relative colony forming efficiency, lipofectin +/- oligonucleotide 4 hours; conditions: Hela S3 cervix carcinoma cells; averages of 2-8 determinations
How it was run: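 Survival is given as percent of lipofectin-treated controls, scored as methylene blue-stained colonies after 7–10 days of regrowth. Beforehand, HeLa S3 cultures received a 4 h lipofectin-mediated pulse of oligonucleotide, normally at 0.2 μM.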

[2] = tested on: T-47D breast ductal carcinoma; experiment: Relative colony forming efficiency (Example 17, Table 13); conditions: averages of 2-8 determinations
How it was run: (§1)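 Phosphorothioate antisense oligodeoxynucleotides, at 0.2 μM unless otherwise indicated, were applied with 2.5 μg DOTMA/DOPE (Lipofectin) for 4 h. Colonies stained with methylene blue and scored, with viability sometimes checked by trypan blue exclusion. Values given as % inhibition of colony formation relative to lipofectin-only controls.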

[3] = tested on: H596 lung adenosquamous carcinoma cells; experiment: as above; conditions: averages of 2-8 determinations
How it was run: as §1

[4] = tested on: MDA-MB-231 breast cell adenocarcinoma; experiment: as above; conditions: averages of 2-8 determinations
How it was run: as §1

[5] = tested on: A549 lung cell carcinoma; experiment: as above; conditions: averages of 2-8 determinations
How it was run: as §1

[6] = tested on: MDA PaCa-2 pancreatic cell carcinoma; experiment: as above; conditions: MIA PaCa-2 pancreatic cell carcinoma; averages of 2-8 determinations
How it was run: as §1

[7] = tested on: PC-3 prostrate cell adenocarcinoma; experiment: as above; conditions: averages of 2-8 determinations
How it was run: as §1

[8] = tested on: T24 bladder cell carcinoma; experiment: as above; conditions: averages of 2-8 determinations
How it was run: as §1

[9] = tested on: HepG2 hepatocellular carcinoma; experiment: as above; conditions: averages of 2-8 determinations
How it was run: as §1

[10] = tested on: HCT116 colon cell carcinoma; experiment: as above; conditions: averages of 2-8 determinations
How it was run: as §1

Substance: C*CCC*TCAC*TCC*AGC*AGC*CT*T (antisense dC*dCdCdC*dTdCdAdC*dTdCdC*dAdGdC*dAdGdC*dCdT*dT) [AS-II-109-20]
- Reduced relative colony forming efficiency, Hela S3 (% inhibition of colony forming ability) [1]: 46.83%
- Reduced relative colony forming efficiency, T-47D (% inhibition of colony forming ability) [2]: 20.63%
- Reduced relative colony forming efficiency, 11596 (% inhibition of colony forming ability) [3]: 7.28%
- Reduced relative colony forming efficiency, MDA-MB-231 (% inhibition of colony forming ability) [4]: 22.38%
- Reduced relative colony forming efficiency, A549 (% inhibition of colony forming ability) [5]: 15.14%
- Reduced relative colony forming efficiency, MIA PaCa-2 (% inhibition of colony forming ability) [6]: 54.24%
- Reduced relative colony forming efficiency, PC-3 (% inhibition of colony forming ability) [7]: 61.51%
- Reduced relative colony forming efficiency, T24 (% inhibition of colony forming ability) [8]: 24.89%
- Reduced relative colony forming efficiency, HepG2 (% inhibition of colony forming ability) [9]: 18.08%
- Reduced relative colony forming efficiency, HCT116 (% inhibition of colony forming ability) [10]: 6.76%

Substance: TGCCTCCGACCCTTCCCA (antisense dT*dG*dC*dC*dT*dC*dC*dG*dA*dC*dC*dC*dT*dT*dC*dC*dC*dA) [AS-II-16-18]
- Reduced relative colony forming efficiency, Hela S3 (% inhibition of colony forming ability) [1]: 68.7%
- Reduced relative colony forming efficiency, T-47D (% inhibition of colony forming ability) [2]: 7.13%
- Reduced relative colony forming efficiency, 11596 (% inhibition of colony forming ability) [3]: 34.5%
- Reduced relative colony forming efficiency, MDA-MB-231 (% inhibition of colony forming ability) [4]: 62.59%
- Reduced relative colony forming efficiency, A549 (% inhibition of colony forming ability) [5]: 81.1%
- Reduced relative colony forming efficiency, PC-3 (% inhibition of colony forming ability) [7]: 89.48%
- Reduced relative colony forming efficiency, T24 (% inhibition of colony forming ability) [8]: 25.74%
- Reduced relative colony forming efficiency, HepG2 (% inhibition of colony forming ability) [9]: 75.89%
- Reduced relative colony forming efficiency, HCT116 (% inhibition of colony forming ability) [10]: 78.57%

Substance: AS-II-1560.20 (antisense dG*dT*dA*dA*dG*dT*dC*dA*dC*dA*dG*dC*dC*dA*dG*dC*dC*dA*dG*dG)
- Reduced relative colony forming efficiency, Hela S3 (% inhibition of colony forming ability) [1]: 82.16%
- Reduced relative colony forming efficiency, T-47D (% inhibition of colony forming ability) [2]: 86.6%
- Reduced relative colony forming efficiency, 11596 (% inhibition of colony forming ability) [3]: 71.16%
- Reduced relative colony forming efficiency, MDA-MB-231 (% inhibition of colony forming ability) [4]: 46.15%
- Reduced relative colony forming efficiency, A549 (% inhibition of colony forming ability) [5]: 84.19%
- Reduced relative colony forming efficiency, MIA PaCa-2 (% inhibition of colony forming ability) [6]: 33.3%
- Reduced relative colony forming efficiency, PC-3 (% inhibition of colony forming ability) [7]: 78.37%
- Reduced relative colony forming efficiency, T24 (% inhibition of colony forming ability) [8]: 32.49%
- Reduced relative colony forming efficiency, HepG2 (% inhibition of colony forming ability) [9]: 73.63%
- Reduced relative colony forming efficiency, HCT116 (% inhibition of colony forming ability) [10]: 85.81%

Substance: CCCCTTCAGCGGCG (antisense dC*dC*dC*dC*dT*dT*dC*dA*dG*dC*dG*dG*dC*dG) [AS-II-253-14]
- Reduced relative colony forming efficiency, Hela S3 (% inhibition of colony forming ability) [1]: 65.18%
- Reduced relative colony forming efficiency, T-47D (% inhibition of colony forming ability) [2]: 27.09%
- Reduced relative colony forming efficiency, 11596 (% inhibition of colony forming ability) [3]: 0.81%
- Reduced relative colony forming efficiency, A549 (% inhibition of colony forming ability) [5]: 61.62%
- Reduced relative colony forming efficiency, PC-3 (% inhibition of colony forming ability) [7]: 67.26%
- Reduced relative colony forming efficiency, T24 (% inhibition of colony forming ability) [8]: 19.41%
- Reduced relative colony forming efficiency, HepG2 (% inhibition of colony forming ability) [9]: 42%
- Reduced relative colony forming efficiency, HCT116 (% inhibition of colony forming ability) [10]: 53.28%

Substance: GCAGCGAAGCAGAGCGAGCA (antisense dG*dC*dA*dG*dC*dG*dA*dA*dG*dC*dA*dG*dA*dG*dC*dG*dA*dG*dC*dA) [AS-II-166-20]
- Reduced relative colony forming efficiency, Hela S3 (% inhibition of colony forming ability) [1]: 80.1%
- Reduced relative colony forming efficiency, T-47D (% inhibition of colony forming ability) [2]: 91.4%
- Reduced relative colony forming efficiency, 11596 (% inhibition of colony forming ability) [3]: 61.99%
- Reduced relative colony forming efficiency, MDA-MB-231 (% inhibition of colony forming ability) [4]: 29.02%
- Reduced relative colony forming efficiency, A549 (% inhibition of colony forming ability) [5]: 81.1%
- Reduced relative colony forming efficiency, MIA PaCa-2 (% inhibition of colony forming ability) [6]: 91.36%
- Reduced relative colony forming efficiency, PC-3 (% inhibition of colony forming ability) [7]: 74.11%
- Reduced relative colony forming efficiency, T24 (% inhibition of colony forming ability) [8]: 68.99%
- Reduced relative colony forming efficiency, HepG2 (% inhibition of colony forming ability) [9]: 78.72%
- Reduced relative colony forming efficiency, HCT116 (% inhibition of colony forming ability) [10]: 73.84%

Substance: CCCAGGACACTACACAAGCC (antisense dC*dC*dC*dA*dG*dG*dA*dC*dA*dC*dT*dA*dC*dA*dC*dA*dA*dG*dC*dC) [AS-II-2026-20]
- Reduced relative colony forming efficiency, Hela S3 (% inhibition of colony forming ability) [1]: 83.79%
- Reduced relative colony forming efficiency, T-47D (% inhibition of colony forming ability) [2]: 93.41%
- Reduced relative colony forming efficiency, 11596 (% inhibition of colony forming ability) [3]: 84.16%
- Reduced relative colony forming efficiency, MDA-MB-231 (% inhibition of colony forming ability) [4]: 77.1%
- Reduced relative colony forming efficiency, A549 (% inhibition of colony forming ability) [5]: 88.81%
- Reduced relative colony forming efficiency, MIA PaCa-2 (% inhibition of colony forming ability) [6]: 87.65%
- Reduced relative colony forming efficiency, PC-3 (% inhibition of colony forming ability) [7]: 95.29%
- Reduced relative colony forming efficiency, T24 (% inhibition of colony forming ability) [8]: 95.46%
- Reduced relative colony forming efficiency, HepG2 (% inhibition of colony forming ability) [9]: 94.54%
- Reduced relative colony forming efficiency, HCT116 (% inhibition of colony forming ability) [10]: 81.47%

Substance: GCTATTATCGCCGCCGTGAG (antisense dG*dC*dT*dA*dT*dT*dA*dT*dC*dG*dC*dC*dG*dC*dC*dG*dT*dG*dA*dG) [AS-II-1773-20]
- Reduced relative colony forming efficiency, Hela S3 (% inhibition of colony forming ability) [1]: 80.27%
- Reduced relative colony forming efficiency, T-47D (% inhibition of colony forming ability) [2]: 84.38%
- Reduced relative colony forming efficiency, 11596 (% inhibition of colony forming ability) [3]: 66.04%
- Reduced relative colony forming efficiency, MDA-MB-231 (% inhibition of colony forming ability) [4]: 44.76%
- Reduced relative colony forming efficiency, A549 (% inhibition of colony forming ability) [5]: 70.11%
- Reduced relative colony forming efficiency, MIA PaCa-2 (% inhibition of colony forming ability) [6]: 45.68%
- Reduced relative colony forming efficiency, PC-3 (% inhibition of colony forming ability) [7]: 70.04%
- Reduced relative colony forming efficiency, T24 (% inhibition of colony forming ability) [8]: 15.19%
- Reduced relative colony forming efficiency, HepG2 (% inhibition of colony forming ability) [9]: 58.19%
- Reduced relative colony forming efficiency, HCT116 (% inhibition of colony forming ability) [10]: 75.58%

Substance: AGGACTGGTTGTGAGGTAGC (antisense dA*dG*dG*dA*dC*dT*dG*dG*dT*dT*dG*dT*dG*dA*dG*dG*dT*dA*dG*dC) [AS-II-1499-20]
- Reduced relative colony forming efficiency, Hela S3 (% inhibition of colony forming ability) [1]: 87.56%
- Reduced relative colony forming efficiency, T-47D (% inhibition of colony forming ability) [2]: 96.67%
- Reduced relative colony forming efficiency, 11596 (% inhibition of colony forming ability) [3]: 78.3%
- Reduced relative colony forming efficiency, MDA-MB-231 (% inhibition of colony forming ability) [4]: 41.26%
- Reduced relative colony forming efficiency, A549 (% inhibition of colony forming ability) [5]: 87.8%
- Reduced relative colony forming efficiency, MIA PaCa-2 (% inhibition of colony forming ability) [6]: 81.17%
- Reduced relative colony forming efficiency, PC-3 (% inhibition of colony forming ability) [7]: 77.28%
- Reduced relative colony forming efficiency, T24 (% inhibition of colony forming ability) [8]: 82.81%
- Reduced relative colony forming efficiency, HepG2 (% inhibition of colony forming ability) [9]: 77.5%
- Reduced relative colony forming efficiency, HCT116 (% inhibition of colony forming ability) [10]: 83.01%

Substance: G*CC*TCCG*ACC*CTTC*CC*ATT*G (antisense dG*dCdC*dTdCdCdG*dAdCdC*dCdTdTdC*dCdC*dAdTdT*dG) [AS-II-13-20]
- Reduced relative colony forming efficiency, Hela S3 (% inhibition of colony forming ability) [1]: 19.85%
- Reduced relative colony forming efficiency, T-47D (% inhibition of colony forming ability) [2]: 15.33%
- Reduced relative colony forming efficiency, 11596 (% inhibition of colony forming ability) [3]: 19.63%
- Reduced relative colony forming efficiency, MDA-MB-231 (% inhibition of colony forming ability) [4]: 45.45%
- Reduced relative colony forming efficiency, A549 (% inhibition of colony forming ability) [5]: 32.3%
- Reduced relative colony forming efficiency, PC-3 (% inhibition of colony forming ability) [7]: 52.38%
- Reduced relative colony forming efficiency, T24 (% inhibition of colony forming ability) [8]: 18.99%
- Reduced relative colony forming efficiency, HepG2 (% inhibition of colony forming ability) [9]: 24.11%
- Reduced relative colony forming efficiency, HCT116 (% inhibition of colony forming ability) [10]: 6.95%

Substance: GCGAGCGGGACACGGAGGGA (antisense dG*dC*dG*dA*dG*dC*dG*dG*dG*dA*dC*dA*dC*dG*dG*dA*dG*dG*dG*dA) [AS-II-201-20]
- Reduced relative colony forming efficiency, Hela S3 (% inhibition of colony forming ability) [1]: 90.87%
- Reduced relative colony forming efficiency, T-47D (% inhibition of colony forming ability) [2]: 98.53%
- Reduced relative colony forming efficiency, 11596 (% inhibition of colony forming ability) [3]: 49.6%
- Reduced relative colony forming efficiency, MDA-MB-231 (% inhibition of colony forming ability) [4]: 25.17%
- Reduced relative colony forming efficiency, A549 (% inhibition of colony forming ability) [5]: 90.55%
- Reduced relative colony forming efficiency, PC-3 (% inhibition of colony forming ability) [7]: 65.08%
- Reduced relative colony forming efficiency, T24 (% inhibition of colony forming ability) [8]: 96.2%
- Reduced relative colony forming efficiency, HepG2 (% inhibition of colony forming ability) [9]: 59.32%
- Reduced relative colony forming efficiency, HCT116 (% inhibition of colony forming ability) [10]: 45.56%

Substance: GGGAGAGCATAGTGGAGGCG (antisense dG*dG*dG*dA*dG*dA*dG*dC*dA*dT*dA*dG*dT*dG*dG*dA*dG*dG*dC*dG) [AS-II-185-20]
- Reduced relative colony forming efficiency, Hela S3 (% inhibition of colony forming ability) [1]: 19.38%
- Reduced relative colony forming efficiency, T-47D (% inhibition of colony forming ability) [2]: 94.52%
- Reduced relative colony forming efficiency, 11596 (% inhibition of colony forming ability) [3]: 24.53%
- Reduced relative colony forming efficiency, MDA-MB-231 (% inhibition of colony forming ability) [4]: 17.4%
- Reduced relative colony forming efficiency, A549 (% inhibition of colony forming ability) [5]: 71.51%
- Reduced relative colony forming efficiency, MIA PaCa-2 (% inhibition of colony forming ability) [6]: 29.32%
- Reduced relative colony forming efficiency, PC-3 (% inhibition of colony forming ability) [7]: 4.37%
- Reduced relative colony forming efficiency, T24 (% inhibition of colony forming ability) [8]: 21.94%
- Reduced relative colony forming efficiency, HepG2 (% inhibition of colony forming ability) [9]: 53.44%
